Data reported in PMC7282811.
Read-outs that look alike come from different tables or passages of the source.

Legend:
[1] = target: T1, H3R (Mus musculus, UniProt P58406); assay: tissue or organelle; set-up: species or system brain tissue of 8-month-old Hdh^Q7/Q7 or Hdh^Q7/Q111 mice; radioligand binding to mouse brain region membranes, KD from saturation and competition curves
T1 construct: gene Hrh3; native receptor, endogenous in mouse brain tissue membranes
Protocol: (§1) Supplementary file elife-51093-supp2.docx: Supplementary file 2. H3R and D1R binding parameters in different brain regions from 8-month-old Hdh^Q7/Q7 and Hdh^Q7/Q111 mice. Mouse striatal, cortical or hippocampal tissue were homogenized in 50 mM Tris-HCl buffer and ligand binding was performed with membrane suspension (see online methods). Binding parameters from saturation and competition curves were obtained using Grafit software by fitting the binding data to the equation previously deduced (equation (3) in [Gracia et al., 2013]. Data are mean ± SEM of experiments performed per triplicate (n = 6 Hdh^Q7/Q7 and n = 5 Hdh^Q7/Q111). To test whether D1R-H3R heteromers can indeed be targets for treating HD, we investigated their expression and function in the striatum, cerebral cortex and hippocampus of a widely accepted preclinical model of HD, the heterozygous Hdh^Q7/Q111 mutant knock-in mice, and their wild-type Hdh^Q7/Q7 littermates ([Giralt et al., 2012]; [Puigdellívol et al., 2015]). By PLA we confirmed that both Hdh^Q7/Q7 and Hdh^Q7/Q111 mice display D1R-H3R heteromers at 2 months (mo) (Figure 2—figure supplement 1) and four mo (Figure 2A,B) of age in all brain regions tested. […] Heteromer expression was similar in all brain areas and no differences were observed between genotypes at 4 mo of age (Figure 2B). […] Although at 8 mo of age we detected a partial decrease in striatal D1R expression in Hdh^Q7/Q111 compared with Hdh^Q7/Q7 mice using ligand binding experiments (Supplementary file 2), the loss of heteromer expression is not due to a complete loss of receptor expression since by radioligand binding (Supplementary file 2) and mRNA expression analysis (Supplementary file 3) both receptors continue to be expressed.

[2] = target: T2, dopamine D1 receptor (D1R) (Mus musculus, UniProt Q61616); assay: radioligand saturation binding, cell membranes, filtration; conditions: labelled compound; STHdh^Q7 cell membranes; 50 mM Tris-HCl pH 7.4, 10 mM MgCl2, 25 °C; nonspecific with 30 µM unlabelled ligand; read-out: binding parameters
T2 construct: gene Drd1; native full-length receptor, endogenous in membranes of STHdh^Q7 mouse striatal cells; part may be in D1R-H3R heteromers
Protocol: radioligand saturation binding, cell membranes, filtration on dopamine D1 receptor (D1R) | membranes were incubated with increasing free concentrations of [^3H]

[3] = target: T2, dopamine D1 receptor (D1R); set-up: species or system STHdh^Q7 or STHdh^Q111 mouse striatal cells; radioligand binding to striatal cell membranes, KD from saturation and competition curves; conditions: STHdh^Q111 cell membranes; binder
Protocol: Supplementary file elife-51093-supp1.docx: Supplementary file 1. H3R and D1R binding parameters in STHdh^Q7, STHdh^Q111 cells. Striatal cells were homogenized in 50 mM Tris-HCl buffer and ligand binding was performed with membrane suspension (see materials and methods). Binding parameters from saturation and competition curves were obtained using Grafit software by fitting the binding data to the equation previously deduced (equation (3) in [Gracia et al., 2013]. Data are mean ± SEM of experiments performed per triplicate.

[4] = target: T3, D1R (Mus musculus, UniProt Q61616); assay: tissue or organelle; set-up: species or system brain tissue of 8-month-old Hdh^Q7/Q7 or Hdh^Q7/Q111 mice; radioligand binding to mouse brain region membranes, KD from saturation and competition curves
T3 construct: gene Drd1; native receptor, endogenous in mouse brain tissue membranes
Protocol: as §1

[5] = Cortex, 8-month-old Hdh^Q7/Q7 mice
[6] = Hippocampus, 8-month-old Hdh^Q7/Q7 mice
[7] = Hippocampus, 8-month-old Hdh^Q7/Q111 mice
[8] = Striatum, 8-month-old Hdh^Q7/Q7 mice
[9] = Striatum, 8-month-old Hdh^Q7/Q111 mice

T3 sequence (Q61616 whole entry): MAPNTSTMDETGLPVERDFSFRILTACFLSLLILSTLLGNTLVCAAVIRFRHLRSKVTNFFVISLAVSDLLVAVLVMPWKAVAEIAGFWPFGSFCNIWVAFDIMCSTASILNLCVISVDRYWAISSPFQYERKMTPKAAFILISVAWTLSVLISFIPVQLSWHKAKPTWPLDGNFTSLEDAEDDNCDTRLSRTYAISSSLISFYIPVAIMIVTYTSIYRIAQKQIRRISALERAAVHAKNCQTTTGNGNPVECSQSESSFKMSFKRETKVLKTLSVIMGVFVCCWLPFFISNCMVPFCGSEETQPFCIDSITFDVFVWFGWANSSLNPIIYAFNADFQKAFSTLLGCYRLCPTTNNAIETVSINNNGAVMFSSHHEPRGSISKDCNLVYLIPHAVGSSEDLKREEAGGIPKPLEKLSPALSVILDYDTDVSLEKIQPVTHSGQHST
T1 sequence (P58406 whole entry): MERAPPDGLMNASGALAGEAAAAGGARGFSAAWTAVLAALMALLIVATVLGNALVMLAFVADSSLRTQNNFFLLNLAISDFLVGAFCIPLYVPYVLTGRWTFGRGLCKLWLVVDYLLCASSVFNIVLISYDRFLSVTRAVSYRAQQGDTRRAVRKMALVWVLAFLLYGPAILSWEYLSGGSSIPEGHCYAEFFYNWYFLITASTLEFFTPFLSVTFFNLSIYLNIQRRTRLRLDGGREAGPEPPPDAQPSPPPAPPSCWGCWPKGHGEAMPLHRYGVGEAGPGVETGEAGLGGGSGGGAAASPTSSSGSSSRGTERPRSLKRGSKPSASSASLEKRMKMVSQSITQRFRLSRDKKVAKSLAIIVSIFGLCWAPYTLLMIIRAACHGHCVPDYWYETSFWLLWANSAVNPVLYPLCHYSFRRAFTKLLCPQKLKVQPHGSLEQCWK
T2 sequence (Q61616 whole entry): as the sequence (Q61616 whole entry) above

C[C@@H](N)Cc1c[nH]cn1 [[^3H] R-α-methyl histamine]
Kd [1, 5]: 0.22 ± 0.02 nM | Kd ([1]; Cortex, 8-month-old Hdh^Q7/Q111 mice): 0.24 ± 0.04 nM | Kd [1, 6]: 0.2 ± 0.01 nM | Kd [1, 7]: 0.37 ± 0.1 nM | Kd [1, 8]: 0.27 ± 0.03 nM | Kd [1, 9]: 0.26 ± 0.03 nM

CN1CCc2cc(Cl)c(O)cc2[C@@H](c2ccccc2)C1 [[^3H] SCH 23390]
Kd [2]: 0.3 ± 0.1 nM | Kd [3]: 0.16 ± 0.08 nM | Kd [4, 5]: 0.05 ± 0.01 nM | Kd [4, 6]: 0.03 ± 0.02 nM | Kd [4, 7]: 0.09 ± 0.07 nM | Kd [4, 8]: 0.17 ± 0.02 nM | Kd [4, 9]: 0.11 ± 0.01 nM
